Converted amounts (≈) assume the structure as drawn.
What was measured:
[1] = test system: Bacillus subtilis; assay: Bacillus subtilis MIC / MBC; assay type: cell-based; details: for MIC: Bacillus subtilis, Bacillus subtilis (Ehrenberg 1835) Cohn 1872 NRRL: B-571, read-out: MIC
[2] = test system: Bacillus thuringiensis; assay type: cell-based; details: Bacillus thuringiensis Berliner ATCC: 10792
[3] = test system: Trichophyton rubrum; assay: MIC against Trichophyton rubrum; assay type: cell-based; details: Trichophyton rubrum Castellani Sabouraud ATCC: 28188; read-out: MIC
[4] = test system: N. gonorrhoeae; assay: N. gonorrhoeae MIC; assay type: cell-based; details: Neisseria gonorrhoeae
[5] = test system: Burkholderia thailandensis Brett et al ATCC: 700388; assay: microbe, parasite or virus in culture; assay type: cell-based
[6] = test system: Candida glabrata; assay: Candida glabrata MIC / MFC; assay type: cell-based; details: Nakaseomyces glabratus, Candida glabrata #584 (Table 2); read-out: MIC
[7] = test system: NoSpin HepaRG cells; assay: HepaRG cytotoxicity, MTT assay EC50; assay type: cell-based, human; details: Homo sapiens, HepaRG; cytotoxicity EC50, Table 9
Protocol: Additionally, the antimicrobial compounds were analyzed for cytotoxicity. […] We utilized the standard MTT assay (Promega CellTiter 96) and GraphPad Prism 7 software to determine EC50 values for each analogue. Briefly, 20,000 HepG2 cells in 200 μl of the ATCC recommended media were seeded in each well of a 96-well plate with a moisture barrier created in the outermost wells. The cells were allowed to attach overnight at 37° C., and then observed under phase contrast microscopy for proper morphological characteristics. […] Once incubations were complete, the spectrophotometric absorbance of the samples was measured at a wavelength of 595 nm. […] For the HepaRG assay, NoSpin HepaRG™ cells (Lonza, cat #NSHPRG) were thawed and plated with 20,000 cells per well. They were allowed to attach for 4 h (optimal DME profile per Lonza's testing) before dosing following the identical protocol as above.

[8] = test system: Francisella tularensis subsp. Holarctica Strain LVSR NR-597; assay: microbe, parasite or virus in culture; assay type: cell-based

Structure (SMILES)	MBC ([1]; Bacillus subtilis NRRL: B-571, minimum bactericidal concentration) [µg/mL]	MIC [1] [µg/mL]	MBC [2] [µg/mL]	MIC ([2]; Bacillus thuringiensis, read-out: MIC) [µg/mL]	MIC [3] [µg/mL]	MIC ([4]; strain #167) [µg/mL]	MIC ([4]; strain #203) [µg/mL]	MIC ([4]; strain #205) [µg/mL]	MIC [5] [µg/mL]	MIC [6] [µg/mL]	EC50 [7] [µg/mL]	MIC [8] [µg/mL]	MBC [5] [µg/mL]
Fc1ccc2[nH]cc(Sc3ccc(Br)cc3)c2c1 [Compound 174E, 3-((4-bromophenyl)thio)-5-fluoro-1H-indole]	3.13 (≈ 9.71 µM)	1.56 (≈ 4.84 µM)	3.13 (≈ 9.71 µM)	1.56 (≈ 4.84 µM)	2.01 (≈ 6.24 µM)	< 0.39	1.56 (≈ 4.84 µM)	1.56 (≈ 4.84 µM)	> 50	3.13 (≈ 9.71 µM)	23.6 (≈ 73.2 µM)	0.78 (≈ 2.42 µM)	–
Oc1ccccc1Sc1c[nH]c2ccc(C(F)(F)F)cc12 [Compound 177A, 2-((5-(trifluoromethyl)-1H-indol-3-yl)thio)phenol]	–	0.39 (≈ 1.26 µM)	–	–	–	–	3.13 (≈ 10.1 µM)	3.13 (≈ 10.1 µM)	> 50	> 50	24.1 (≈ 77.9 µM)	0.78 (≈ 2.52 µM)	> 50
